No end group written: not given here.

The assay concerns the target T1, mu-opioid receptor (MOR) (Homo sapiens, UniProt P35372).
T1 construct: expressed in transfected cells; host or cells: CHO-K1
The assay can be described thus: functional cellular cAMP assay on CHO-K1 cell lines expressing MOR, co-administration with orthosteric ligand. It counts as cell-based. As to conditions: for Allosteric activity level (%): 0% = reference agonist at EC20, 100% = maximum activity of reference agonist; for EC50: logEC50(M), log of molar EC50, CHO-K1 cells expressing MOR, cAMP. As for the experimental part:
The properties and functionality of these peptidosteroids were validated using standard experimental methods. To evaluate their allosteric modulation capabilities, functional cellular assays were conducted on CHO-K1 cell lines expressing MOR. These assays utilized fluorescent techniques to measure intracellular cAMP levels as a marker of receptor activity.
The peptidosteroids were tested in co-administration with orthosteric ligands, such as morphine and DAMGO, to assess their ability to influence receptor signaling.
The table below provides additional data on the binding motifs (Candidates 1 and 2) and the resulting peptidomimetics (Candidate 3), offering a detailed comparison of their activity. The percentage values are normalized such that 0% corresponds to the activity of the reference agonist at EC20, while 100% represents the maximum activity of the reference agonist.
For orientation: Cyclic AMP is a second messenger, typically raised through Gs and lowered through Gi signalling.

T1 sequence (P35372 whole entry): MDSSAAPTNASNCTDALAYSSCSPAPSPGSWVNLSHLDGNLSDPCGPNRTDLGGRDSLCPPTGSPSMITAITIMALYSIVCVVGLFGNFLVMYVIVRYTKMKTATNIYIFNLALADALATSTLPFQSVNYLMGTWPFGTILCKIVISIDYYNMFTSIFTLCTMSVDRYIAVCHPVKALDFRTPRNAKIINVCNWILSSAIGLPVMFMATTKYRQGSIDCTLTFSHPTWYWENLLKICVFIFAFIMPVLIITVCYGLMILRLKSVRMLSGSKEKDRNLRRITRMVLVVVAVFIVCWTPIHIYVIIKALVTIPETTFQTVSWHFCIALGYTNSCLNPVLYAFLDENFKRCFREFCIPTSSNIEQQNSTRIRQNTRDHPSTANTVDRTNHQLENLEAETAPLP

For orientation: EC50 means the midpoint of the concentration-response curve. As for “VCAVGLWGNWLVM [sequence-1, VCAVGLWGNWLVM]”, the “Allosteric activity level (%)” value (agonist present DAMGO) is given as 23.64% and the “Allosteric activity level (%)” value (agonist present morphine) was determined as 21.67%. The EC50 was 4.57e-06 M (agonist present DAMGO (EC20)) and 1e-06 M (agonist present morphine).
In the case of YPWFYL [sequence-4, YPWFYL], the “Allosteric activity level (%)” value (agonist present DAMGO) was determined as 24.64%. Moreover, the EC50 (agonist present DAMGO (EC20)) is 1.35e-06 M.
